In US7205305B2, “Inhibitors of p38” (Vertex Pharmaceuticals Incorporated, priority 1996, dated 2007):

How the values were obtained:
[1] = test system: TNF production in LPS-stimulated PBMCs; assay: Inhibition of TNF production in LPS-stimulated PBMCs ("cell"); format: cell-based, human; details: Homo sapiens, PBMC
Procedure: (§1) Inhibitors were serially diluted in DMSO from a 20 mM stock. At least 6 serial dilutions were prepared. Then 4× inhibitor stocks were prepared by adding 4 μl of an inhibitor dilution to 1 ml of RPMI1640 medium/10% fetal bovine serum. The 4× inhibitor stocks contained inhibitor at concentrations of 80 μM, 32 μM, 12.8 μM, 5.12 μM, 2.048 μM, 0.819 μM, 0.328 μM, 0.131 μM, 0.052 μM, 0.021 μM etc. The 4× inhibitor stocks were pre-warmed at 37° C. until use.
(§2) Fresh human blood buffy cells were separated from other cells in a Vacutainer CPT from Becton & Dickinson (containing 4 ml blood and enough DPBS without Mg^2+/Ca^2+ to fill the tube) by centrifugation at 1500×g for 15 min. Peripheral blood mononuclear cells (PBMCs), located on top of the gradient in the Vacutainer, were removed and washed twice with RPMI1640 medium/10% fetal bovine serum. PBMCs were collected by centrifugation at 500×g for 10 min. The total cell number was determined using a Neubauer Cell Chamber and the cells were adjusted to a concentration of 4.8×10^6 cells/ml in cell culture medium (RPMI1640 supplemented with 10% fetal bovine serum).
(§3) We placed 100 μl of cell suspension or whole blood in each well of a 96-well cell culture plate. Then we added 50 μl of the 4× inhibitor stock to the cells. Finally, we added 50 μl of a lipopolysaccharide (LPS) working stock solution (16 ng/ml in cell culture medium) to give a final concentration of 4 ng/ml LPS in the assay. The total assay volume of the vehicle control was also adjusted to 200 μl by adding 50 μl cell culture medium. The PBMC cells or whole blood were then incubated overnight (for 12–15 hours) at 37° C./5% CO2 in a humidified atmosphere.
(§4) The next day the cells were mixed on a shaker for 3–5 minutes before centrifugation at 500×g for 5 minutes. Cell culture supernatants were harvested and analyzed by ELISA for levels of IL-1b (R & D Systems, Quantikine kits, #DBL50), TNF-α (BioSource, #KHC3012), IL-6 (Endogen, #EH2-IL6) and IL-8 (Endogen, #EH2-IL8) according to the instructions of the manufacturer. The ELISA data were used to generate dose-response curves from which IC50 values were derived.

activated p38 = activated p38 (Homo sapiens, UniProt Q16539); assay: Inhibition of phosphorylation of EGF receptor peptide ("kinase"); format: biochemical; details: inhibition of phosphorylation of EGF receptor peptide by activated p38
Chain of activated p38 (Q16539 whole entry): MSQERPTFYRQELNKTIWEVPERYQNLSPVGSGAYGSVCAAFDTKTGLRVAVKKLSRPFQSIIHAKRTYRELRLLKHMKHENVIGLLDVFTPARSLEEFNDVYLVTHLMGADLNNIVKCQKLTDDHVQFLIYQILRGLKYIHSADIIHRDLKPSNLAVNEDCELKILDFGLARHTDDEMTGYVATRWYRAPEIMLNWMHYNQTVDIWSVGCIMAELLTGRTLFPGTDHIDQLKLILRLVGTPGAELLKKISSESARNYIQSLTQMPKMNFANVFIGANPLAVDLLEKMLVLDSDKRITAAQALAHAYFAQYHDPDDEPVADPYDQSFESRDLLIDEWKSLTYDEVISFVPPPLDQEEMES
Procedure: This assay was carried out in the presence of 10 mM MgCl2, 25 mM β-glycerophosphate, 10% glycerol and 100 mM HEPES buffer at pH 7.6. […] The stock solution was aliquotted into vials. A fixed volume of DMSO or inhibitor in DMSO (final concentration of DMSO in reaction was 5%) was introduced to each vial, mixed and incubated for 15 minutes at room temperature. EGF receptor peptide, […], a phosphoryl acceptor in p38-catalyzed kinase reaction (1), was added to each vial to a final concentration of 200 μM. The kinase reaction was initiated with ATP (100 μM) and the vials were incubated at 30° C. After 30 minutes, the reactions were quenched with equal volume of 10% trifluoroacetic acid (TFA).
The phosphorylated peptide was quantified by HPLC analysis. Separation of phosphorylated peptide from the unphosphorylated peptide was achieved on a reverse phase column (Deltapak, 5 μm, C18 100D, part no. 011795) with a binary gradient of water and acteonitrile, each containing 0.1% TFA.

[2] = test system: IL-1 production in LPS-stimulated PBMCs; assay: Inhibition of IL-1 production in LPS-stimulated PBMCs ("cell"); format: cell-based, human; details: Homo sapiens, PBMC
Procedure: as §1, §2, §3, §4

Row | SMILES | IC50 [1] [nM] | IC50 (activated p38) [nM] | IC50 [2] [nM]
1 | Nc1cc(C(F)(F)F)ccc1SC1=NN2CNC(=O)C(c3c(Cl)cccc3Cl)=C2C=C1 [Compound 126] | ≥ 500 | ≥ 1000 | 100 to 500
2 | O=c1ncn2nc(Sc3ccccc3)ccc2c1-c1ccccc1Cl [Compound 7] | ≥ 500 | ≥ 1000 | ≥ 500
3 | NC(=O)C(c1ccc(C(O)c2ccccc2)cn1)c1c(Cl)cccc1Cl (stereo not shown) [Compound 208] |  |  | 100 to 500
4 | Cc1ccc(-c2cccc(N(C(N)=O)c3c(Cl)cccc3Cl)n2)cc1 [Compound 406] | ≥ 500 | 100 to 1000 | 100 to 500
5 | NC(=O)C(c1cccc(-c2ccccc2CNCCO)n1)c1c(Cl)cccc1Cl (stereo not shown) [Compound 351] | ≥ 500 | ≥ 1000 | ≥ 500
6 | COc1ccccc1-c1cccc(C(C(N)=O)c2c(Cl)cccc2Cl)n1 (stereo not shown) [Compound 324] | ≥ 500 | 100 to 1000 | 100 to 500
7 | NC(=O)N(c1cccc(-c2ccc(Cl)cc2)n1)c1c(Cl)cccc1Cl [Compound 408] | 100 to 500 | ≤ 100 | ≤ 100
8 | NC(=O)C(c1cccc(-c2ccc(F)c(Cl)c2)n1)c1c(Cl)cccc1Cl (stereo not shown) [Compound 313] | ≥ 500 | 100 to 1000 | ≥ 500
9 | NC(=O)C(c1cccc(-c2cccs2)n1)c1c(Cl)cccc1Cl (stereo not shown) [Compound 317] | ≥ 500 | ≥ 1000 | ≥ 500
10 | N=C(N)Nc1cc(F)c(F)cc1SC1=NN2CNC(=O)C(c3c(Cl)cccc3Cl)=C2C=C1 [Compound 124] | ≥ 500 | ≥ 1000 | ≥ 500
11 | Cc1nc(=O)c(-c2c(Cl)cccc2Cl)c2ccc(Sc3ccc(F)c(Cl)c3)nn12 [Compound 40] | ≥ 500 | 100 to 1000 | 100 to 500
12 | Cc1cc(Cl)ccc1Sc1ccc(C(C(N)=O)c2c(Cl)cccc2Cl)nn1 (stereo not shown) [Compound 206] | ≥ 500 | 100 to 1000 | ≥ 500
13 | O=c1ncn2nc(Sc3ccccc3)ccc2c1-c1ccc(Cl)c(Cl)c1 [Compound 9] | ≥ 500 | ≥ 1000 | ≥ 500
14 | COc1cc(Cl)c(C2=C3C=CC(Sc4ccc(F)cc4)=NN3CNC2=O)cc1OC [Compound 134] | ≥ 500 | ≤ 100 | 100 to 500
15 | O=c1ncn2nc(Sc3ccccc3)ccc2c1-c1c(F)cccc1F [Compound 17] | ≥ 500 | ≥ 1000 | ≥ 500
16 | Cc1ccccc1-c1c(=O)ncn2nc(Sc3ccccc3)ccc12 [Compound 8] | ≥ 500 | ≥ 1000 | ≥ 500
17 | CN(C)C(=O)c1ccccc1Sc1ccc2c(-c3c(Cl)cccc3Cl)c(=O)ncn2n1 [Compound 31] | ≥ 500 | ≥ 1000 | ≥ 500
18 | O=c1ncn2nc(Sc3ccc(F)cc3)ccc2c1-c1cc2c(cc1Cl)OCO2 [Compound 39] | ≥ 500 | 100 to 1000 | ≥ 500
19 | O=c1ncn2nc(Sc3cccc(F)c3)ccc2c1-c1c(Cl)cccc1Cl [Compound 21] | ≥ 500 | 100 to 1000 | 100 to 500
20 | COc1ccc(-c2c(=O)ncn3nc(Sc4ccc(F)cc4)ccc23)c(Cl)c1 [Compound 47] | ≥ 500 | 100 to 1000 | 100 to 500
21 | Cc1cc(F)ccc1-c1cccc(C(C(N)=O)c2c(F)cccc2Cl)n1 (stereo not shown) [Compound 361] | ≥ 500 | 100 to 1000 | 100 to 500
22 | COc1cccc(-c2cccc(C(C(N)=O)c3c(Cl)cccc3Cl)n2)c1 (stereo not shown) [Compound 322] | ≥ 500 | 100 to 1000 | ≥ 500
23 | O=C1NCN2C=C(Sc3ccc(F)cc3)C=CC2=C1c1c(Cl)cccc1Cl [Compound 111] | ≥ 500 | 100 to 1000 | ≥ 500
24 | Nc1ccc(-c2c(=O)ncn3nc(Sc4ccc(F)cc4)ccc23)c(Cl)c1 [Compound 46] | ≥ 500 | 100 to 1000 | ≥ 500

Row | SMILES | IC50 [1] [nM] | IC50 (activated p38) [nM] | IC50 [2] [nM]
25 | O=c1ncn2nc(Sc3cccc(Cl)c3)ccc2c1-c1c(Cl)cccc1Cl [Compound 25] | ≥ 500 | 100 to 1000 | 100 to 500
26 | NC(=O)C(c1cccc(-c2ccc(F)c(Cl)c2)n1)c1c(F)cccc1Cl (stereo not shown) [Compound 333] | ≥ 500 | 100 to 1000 | ≥ 500
27 | Cc1cc(Cl)ccc1Sc1ccc2c(-c3c(Cl)cccc3Cl)c(=O)ncn2n1 [Compound 28] | 100 to 500 | 100 to 1000 | 100 to 500
28 | NC(=O)C(c1cccc(-c2cccc(C(F)(F)F)c2)n1)c1c(F)cccc1Cl (stereo not shown) [Compound 353] | ≥ 500 | 100 to 1000 | ≥ 500
29 | Cc1cccc(C)c1N(C(N)=O)c1cccc(-c2ccc(F)cc2)n1 [Compound 407] | ≥ 500 | 100 to 1000 | 100 to 500
30 | NC(=O)C(c1ccc(C(=O)c2ccccc2)cn1)c1c(Cl)cccc1Cl (stereo not shown) [Compound 209] |  |  | ≥ 500
31 | NC(=O)C(c1cccc(-c2ccccc2CN2CCCC2)n1)c1c(Cl)cccc1Cl (stereo not shown) [Compound 350] | ≥ 500 | ≥ 1000 | 100 to 500
32 | Cc1cc(F)ccc1SC1=NN2CNC(=O)C(c3c(Cl)cccc3Cl)=C2C=C1 [Compound 131] | ≤ 100 | ≤ 100 | ≤ 100
33 | O=c1ncn2nc(Sc3ccccc3Br)ccc2c1-c1c(Cl)cccc1Cl [Compound 29] | 100 to 500 | 100 to 1000 | 100 to 500
34 | NC(=O)C(c1cccc(-c2cccc(F)c2)n1)c1c(Cl)cccc1Cl (stereo not shown) [Compound 323] | 100 to 500 | 100 to 1000 | 100 to 500
35 | Cc1ccc(Sc2ccc3c(-c4c(Cl)cccc4Cl)c(=O)ncn3n2)cc1C [Compound 19] | ≥ 500 | ≥ 1000 | ≥ 500
36 | NC(=O)C(c1cccc(-c2cccc(Cl)c2)n1)c1c(Cl)cccc1Cl (stereo not shown) [Compound 320] | 100 to 500 | ≤ 100 | 100 to 500
37 | CN(C)/C=N\c1ccc(-c2c(=O)ncn3nc(Sc4ccc(F)cc4Cl)ccc23)c(Cl)c1 [Compound 48] | ≥ 500 | 100 to 1000 | 100 to 500
38 | CCc1ccccc1Sc1ccc2c(-c3c(Cl)cccc3Cl)c(=O)ncn2n1 [Compound 20] | ≥ 500 | 100 to 1000 | ≥ 500
39 | CC(C)c1ccccc1Sc1ccc2c(-c3c(Cl)cccc3Cl)c(=O)ncn2n1 [Compound 18] | ≥ 500 | ≥ 1000 | ≥ 500
40 | Nc1ccc(F)c(C2=C3C=CC(Sc4ccc(F)cc4)=NN3CNC2=O)c1Cl [Compound 132] | 100 to 500 | ≤ 100 | ≤ 100
41 | NC(=O)Nc1cc(F)ccc1SC1=NN2CNC(=O)C(c3c(Cl)cccc3Cl)=C2C=C1 [Compound 128] | ≥ 500 | ≥ 1000 | ≥ 500
42 | O=c1ncn2nc(Sc3ccc(F)cc3[N+](=O)[O-])ccc2c1-c1c(Cl)cccc1Cl [Compound 34] | ≥ 500 | ≥ 1000 | ≥ 500
43 | Cc1ccc(-c2cccc(C(C(N)=O)c3c(Cl)cccc3Cl)n2)cc1 (stereo not shown) [Compound 311] | ≥ 500 | 100 to 1000 | ≥ 500
44 | O=C1NCN2N=C(Sc3ccccc3)C=CC2=C1c1c(F)cccc1F [Compound 130] | ≥ 500 | ≤ 100 | 100 to 500
45 | Cc1cc(Sc2ccc3c(-c4c(Cl)cccc4Cl)c(=O)ncn3n2)c(Cl)cc1F [Compound 41] | ≤ 100 | ≤ 100 | ≤ 100
46 | COc1cc(Cl)c(-c2c(=O)ncn3nc(Sc4ccc(F)cc4)ccc23)cc1OC [Compound 43] | ≥ 500 | 100 to 1000 | ≥ 500
47 | COc1ccc(-c2cccc(C(C(N)=O)c3c(Cl)cccc3Cl)n2)cc1 (stereo not shown) [Compound 352] |  | ≥ 1000 | ≥ 500
